Consider 18 compounds from patent US11976061B2, “Preparation of benzimidazolone derivatives as novel diacylglyceride O-acyltransferase 2 inhibitors” (Merck Sharp & Dohme LLC, priority 2020, dated 2024).

In the assay the target is T1, human DGAT2 (hDGAT2) (Homo sapiens, UniProt Q96PD7).
T1 construct: made in house; host or cells: Sf-9 insect cells (baculovirus), membrane fraction
T1 sequence (Q96PD7 1-388): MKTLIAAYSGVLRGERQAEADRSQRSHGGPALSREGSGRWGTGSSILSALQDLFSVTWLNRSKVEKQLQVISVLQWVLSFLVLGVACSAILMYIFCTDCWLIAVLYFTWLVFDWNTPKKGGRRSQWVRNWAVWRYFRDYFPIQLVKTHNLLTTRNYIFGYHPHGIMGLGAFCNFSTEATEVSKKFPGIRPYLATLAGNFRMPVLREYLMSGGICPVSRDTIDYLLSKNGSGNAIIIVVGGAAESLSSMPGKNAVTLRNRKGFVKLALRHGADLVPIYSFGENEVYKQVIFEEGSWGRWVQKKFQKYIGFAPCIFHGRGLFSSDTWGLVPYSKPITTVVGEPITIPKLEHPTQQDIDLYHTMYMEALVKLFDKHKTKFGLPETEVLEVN
Nature of the assay: DGAT2 Enzymatic Activity Assay. The class given is biochemical. The note with it: membrane prep of Sf-9 cells expressing hDGAT2, 25 μM diolein, 5 μM 13C oleoyl-CoA, 13C18-triolein by LC/MS/MS. The essentials: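 Membranes from Sf-9 cells expressing untagged human DGAT2 (8 ng/μL) incubated at rt in 100 mM Tris·Cl pH 7.0, 20 mM MgCl2, 5% ethanol with 25 μM diolein and 5 μM 13C oleoyl-CoA. 13C18-triolein product quantified by LC/MS/MS against 13C21-triolein internal standard; IC50 by 4-parameter fit.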

Like-named read-outs stand apart in the source and are kept apart here.

Usually IC50 stands for the concentration that gives 50% inhibition. Turning to `CC(C)n1c(=O)n(-c2cccc(OC(F)F)c2)c2ncc(C(=O)N[C@]3(C)CCS(=O)(=O)C3)cc21` [Example 90, 3-[3-(difluoromethoxy)phenyl]-1-isopropyl-N-[(3R)-3-methyl-1,1-dioxo-thiolan-3-yl]-2-oxo-imidazo[4,5-b]pyridine-6-carboxamide], the IC50 (read-out: DGAT2 IC50) came out at 193 nM. On to `CC(C)n1c(=O)n(-c2cc(OC(F)F)ccc2F)c2ncc(C(=O)NC3(C)CS(=O)(=O)C3)cc21` [Example 102, 3-[5-(difluoromethoxy)-2-fluoro-phenyl]-1-isopropyl-N-(3-methyl-1,1-dioxo-thietan-3-yl)-2-oxo-imidazo[4,5-b]pyridine-6-carboxamide], for which the IC50 (read-out: DGAT2 IC50) was determined as 148 nM. Turning to `CC(C)n1c(=O)n(-c2cc(OCC(F)F)ccn2)c2cc(F)c(C(=O)NC3(C)CCS(=O)(=O)CC3)cc21` [Example 121, 1-(4-(2,2-difluoroethoxy)pyridin-2-yl)-6-fluoro-3-isopropyl-N-(4-methyl-1,1-dioxidotetrahydro-2H-thiopyran-4-yl)-2-oxo-2,3-dihydro-1H-benzo[d]imidazole-5-carboxamide], the IC50 (read-out: DGAT2 IC50) turned out to be 92 nM. Regarding `CC(C)n1c(=O)n(-c2cc(OC(F)F)ccc2F)c2ccc(C(=O)N[C@@]3(C)CCS(=O)(=O)C3)cc21` [Example 81, (S)-1-(5-(Difluoromethoxy)-2-fluorophenyl)-3-isopropyl-N-(3-methyl-1,1-dioxidotetrahydrothiophen-3-yl)-2-oxo-2,3-dihydro-1H-benzo[d]imidazole-5-carboxamide], for the setting “read-out: Human DGAT2 IC50”, the IC50 was 6.3 nM. Same read-out and setting: with `CC(C)n1c(=O)n(-c2cncc(OC(F)F)c2)c2ccc(C(=O)NC3(C)CS(=O)(=O)C3)cc21` [Example 83, 1-(5-(Difluoromethoxy)pyridin-3-yl)-3-isopropyl-N-(3-methyl-1,1-dioxidothietan-3-yl)-2-oxo-2,3-dihydro-1H-benzo[d]imidazole-5-carboxamide] the figure was 150 nM. Take `CC(C)n1c(=O)n(-c2cccc(OC(F)F)c2)c2ncc(C(=O)N[C@@]3(C)CCS(=O)(=O)C3)cc21` [Example 89, 3-[3-(difluoromethoxy)phenyl]-1-isopropyl-N-[(3S)-3-methyl-1,1-dioxo-thiolan-3-yl]-2-oxo-imidazo[4,5-b]pyridine-6-carboxamide]: the IC50 (read-out: DGAT2 IC50) worked out at 288 nM. Still for that read-out and setting: under `CC(C)n1c(=O)n(-c2cccc(OC(F)F)c2)c2ccc(C(=O)NC3(C)CS(=O)(=O)C3)cc21` [Example 26, 1-[3-(difluoromethoxy)phenyl]-3-isopropyl-N-(3-methyl-1,1-dioxo-thietan-3-yl)-2-oxo-benzimidazole-5-carboxamide] stands 54 nM. On to `CC(C)n1c(=O)n(-c2cccc(OC(F)(F)F)c2)c2ccc(C(=O)NC3(C)CS(=O)(=O)C3)cc21` [Example 19, 3-isopropyl-N-(3-methyl-1,1-dioxo-thietan-3-yl)-2-oxo-1-[3-(trifluoromethoxy)phenyl]benz-imidazole-5-carboxamide], for which the IC50 (read-out: Human DGAT2 IC50) came to 100 nM.

For the compound `CCOc1cc(-n2c(=O)n(C(C)C)c3cc(C(=O)N[C@]4(C)CCS(=O)(=O)C4)ccc32)c(F)cn1` [Example 18, (R)-1-(2-Ethoxy-5-fluoropyridin-4-yl)-3-isopropyl-N-(3-methyl-1,1-dioxidotetrahydrothiophen-3-yl)-2-oxo-2,3-dihydro-1H-benzo[d]imidazole-5-carboxamide], under “read-out: Human DGAT2 IC50”, the IC50 was found to be 28 nM.

Consider `CCOc1cccc(-n2c(=O)n(C(C)C)c3cc(C(=O)NC4(C)CCS(=O)(=O)CC4)cnc32)c1` [Example 99, 3-(3-ethoxyphenyl)-1-isopropyl-N-(4-methyl-1,1-dioxo-thian-4-yl)-2-oxo-imidazo[4,5-b]pyridine-6-carboxamide], for which, for the setting “read-out: DGAT2 IC50”, the IC50 stood at 52 nM.

Consider `C[C@@]1(NC(=O)c2ccc3c(c2)n(C2CCCC2)c(=O)n3-c2cccc(OC(F)F)c2)CCS(=O)(=O)C1` [Example 38, (R)-3-Cyclopentyl-1-(3-(difluoromethoxy)phenyl)-N-(3-methyl-1,1-dioxidotetrahydrothiophen-3-yl)-2-oxo-2,3-dihydro-1H-benzo[d]imidazole-5-carboxamide], for which the IC50 (read-out: DGAT2 IC50) was 24 nM. `CC(C)n1c(=O)n(-c2cc(OC(F)F)ncc2F)c2cc(F)c(C(=O)NC3(C)CCS(=O)(=O)CC3)cc21` [Example 122, 1-(2-(difluoromethoxy)-5-fluoropyridin-4-yl)-6-fluoro-3-isopropyl-N-(4-methyl-1,1-dioxidotetrahydro-2H-thiopyran-4-yl)-2-oxo-2,3-dihydro-1H-benzo[d]imidazole-5-carboxamide]: the IC50 (read-out: Human DGAT2 IC50) was found to be 56 nM.

Turning to `CC(C)n1c(=O)n(-c2cc(OC(F)F)ccn2)c2ccc(C(=O)NC3(C)CS(=O)(=O)C3)cc21` [Example 12, 1-[4-(difluoromethoxy)-2-pyridyl]-3-isopropyl-N-(3-methyl-1,1-dioxo-thietan-3-yl)-2-oxo-benzimidazole-5-carboxamide], the IC50 (read-out: Human DGAT2 IC50) was determined as 122 nM. `CCC(C)n1c(=O)n(-c2cccc(OC(F)F)c2)c2ccc(C(=O)NC3(C)CS(=O)(=O)C3)cc21` (single isomer, unassigned) [Example 46a, 3-(sec-butyl)-1-(3-(difluoromethoxy)phenyl)-N-(3-methyl-1,1-dioxidothietan-3-yl)-2-oxo-2,3-dihydro-1H-benzo[d]imidazole-5-carboxamide]: the IC50 (read-out: DGAT2 IC50) is 81 nM. Take `CC(C)n1c(=O)n(-c2cc(OC(F)F)ncc2F)c2cc(F)c(C(=O)NC3(C)CS(=O)(=O)C3)cc21` [Example 24, 1-(2-(Difluoromethoxy)-5-fluoropyridin-4-yl)-6-fluoro-3-isopropyl-N-(3-methyl-1,1-dioxidothietan-3-yl)-2-oxo-2,3-dihydro-1H-benzo[d]imidazole-5-carboxamide]: the IC50 (read-out: Human DGAT2 IC50) was determined as 66 nM.

Turning to `CCOc1cccc(-n2c(=O)n(C(C)C)c3cc(C(=O)N[C@]4(C)CCS(=O)(=O)C4)cnc32)c1` [Example 98, 3-(3-ethoxyphenyl)-1-isopropyl-N-[(3R)-3-methyl-1,1-dioxo-thiolan-3-yl]-2-oxo-imidazo[4,5-b]pyridine-6-carboxamide], for the setting “read-out: DGAT2 IC50”, the IC50 worked out at 102 nM. For `CC(C(N)=O)n1c(=O)n(-c2cccc(OC(F)F)c2)c2ccc(C(=O)NC3(C)CCS(=O)(=O)CC3)cc21` (single isomer, unassigned) [EX-85a, 3-(1-amino-1-oxopropan-2-yl)-1-(3-(difluoromethoxy)phenyl)-N-(4-methyl-1,1-dioxidotetrahydro-2H-thiopyran-4-yl)-2-oxo-2,3-dihydro-1H-benzo[d]imidazole-5-carboxamide], under “read-out: Human DGAT2 IC50”, the IC50 worked out at 551 nM. With `CC1(NC(=O)c2ccc3c(c2)n(Cc2ccc(F)cc2)c(=O)n3-c2cccc(OC(F)F)c2)CCS(=O)(=O)CC1` [Example 59, 1-(3-(difluoromethoxy)phenyl)-3-(4-fluorobenzyl)-N-(4-methyl-1,1-dioxidotetrahydro-2H-thiopyran-4-yl)-2-oxo-2,3-dihydro-1H-benzo[d]imidazole-5-carboxamide], where the note is “read-out: DGAT2 IC50”, the IC50 came out at 38 nM.
